Key:
PNH-like erythrocytes = experiment: Alternative pathway inhibition assay of PNH-like erythrocyte; assay type: cell-based; settings: 1 h, AET/anti-CD55 sensitized human erythrocytes, acidified normal human serum pH 6.4, 37° C. 60 min
From the text: Principle: PNH, as an indication for complement inhibitors, was typically tested using the Ham test, which states that acidified serum was capable of activating the alternative pathway, leading to hemolysis of PNH erythrocytes, while normal erythrocytes remained unaffected. It was reported in the literature that AET could disrupt the complement regulatory proteins on the surface of normal human erythrocytes, resulting in PNH-like erythrocytes.
Reagents and instrument: PBS buffer, normal human serum (NHS), Alsever's solution, microplate reader, MgCl2, EGTA, EDTA, HCl, normal human erythrocytes, AET; anti-CD-55 antibody (BRIC216; Sigma)
PBS buffer: Potassium dihydrogen phosphate (KH2PO4): 0.24 g/L, disodium hydrogen phosphate (Na2HPO4): 1.44 g/L, sodium chloride (NaCl): 8 g/L, potassium chloride (KCl): 0.2 g/L, pH 7.4
PBSE buffer: PBS, 10 mM EDTA; pH 7.4
PBSMg buffer: PBS, 1 mM Mg++; pH 6.4
10× Mg-EGTA stock solution: 25 mM MgCl2, 80 mM EGTA; pH 6.4
10× EDTA stock solution: 100 mM EDTA; pH 6.4
Method: The inhibition of alternative pathway-mediated erythrocyte lysis was evaluated using an in vitro model of PNH. Normal human erythrocytes were sensitized with 2-aminoethylisothiouronium bromide (AET) to inactivate complement regulatory proteins on the cell surface and induce a PNH-like phenotype.
2 mL of normal human erythrocytes were mixed with 2 mL of Alsever's solution, washed three times with PBS, and centrifuged at 2500×g, with the upper 10% of the erythrocytes being removed each time. The washed 1 mL erythrocytes were sensitized by incubation with 4 mL of 8% w/v AET (pH 8.0) at 37° C. for 10 min, followed by three additional washes with PBS. Subsequently, the concentration of erythrocytes in PBS (erythrocyte stock solution) was adjusted with PBS such that an absorbance of 1.5-2.0 at 412 nm (indicating hemoglobin release) was achieved upon dilution of 10 μL erythrocyte stock solution with 190 μL water.
1.5 mL of the erythrocyte stock solution was mixed with anti-CD55 antibody (BRIC216; Sigma/final concentration of 6.7 μg/mL) and incubated on ice for 30 min. After being washed once with PBS, the treated erythrocytes were resuspended in PBS-Mg to the initial volume of 1.5 mL. The following AP-mediated lysis assay was performed on this erythrocyte preparation with induced PNH phenotype.
The normal human serum was acidified with 0.2 M HCl to pH 6.4, and supplemented with MgCl2 and EGTA to final concentrations of 2.5 and 8 mM, respectively. 80 μL of this serum mixture was mixed with 10 μL of PBS-Mg (negative blank) or 10 μL of samples at various concentrations. Normal human serum was acidified with 0.2 M HCl to pH 6.4, supplemented with EDTA to a final concentration of 10 mM, and 80 μL of this serum mixture was mixed with 10 μL of PBS-Mg (negative blank) as a blank positive control. The sample was incubated with serum on ice for 5 min, and then 10 μL of sensitized erythrocytes were added. The final serum concentration in the reaction mixture was approximately 64% v/v, incubated at 37° C. for 60 min, and the reaction was quenched by adding 50 μL of ice-cold PBS containing 10 mM EDTA. The remaining unlysed cells were centrifuged at 2500×g for 10 min, and 100 μL of the supernatant was transferred to a 96-well plate to measure its absorbance at 412 nm. The amount of hemoglobin released during erythrocyte lysis was thereby quantified. […] represented the relative lysis of PNH-like erythrocytes (expressed in %; set to 0% for the PC sample and 100% for the NC sample). The absorbance was measured using a microplate reader (Molecular Devices SpectraMax 3X). The IC50 value was calculated by applying nonlinear regression with GraphPad Prism 9.0 software from the percentage of hemolysis as a function of the test compound concentration.

[1] = Pharmacokinetic activity assay in mice; assay type: in vivo; settings: IV 1 mg/kg, PO 10 mg/kg
Description: Experimental objective: The test substance was administered to mice via single-dose intravenous and oral gavage routes, and its plasma concentration was measured to evaluate the pharmacokinetic characteristics in mice.
Experimental animals: C57 mice or other available test mice
IV dose: 1 mg/kg; vehicle: 0.5% DMSO or 0.5% MeOH-5% pharmaceutical grade polyethylene glycol-15 hydroxystearate-PBS
Sample collection: 0.03 mL of blood samples were collected from the saphenous vein in experimental animals by puncture at each time point, and the actual blood collection time was recorded. All blood samples were added to commercially available EDTA-K2 anticoagulant tubes with a specification of 1.5 mL (supplied by Jiangsu Kangjian Medical Apparatus Co., Ltd.). After collection, within half an hour, the blood sample was centrifuged at 4° C., 3000 g for 10 min to aspirate the supernatant plasma, which was put in dry ice immediately, and stored in a refrigerator at −80° C. for LCMS/MS analysis.
Blood sampling points: 5 min, 15 min, 30 min, 1 hour, 2 hours, 4 hours, 6 hours, 8 hours, 12 hours, 20 hours, 24 hours.
Test compounds: positive compound LNP023, the final product of Example 158, the final products (compound 159A and compound 159B) of Example 159, and compound 11 of Example 75.

Complement factor B = Complement factor B (Homo sapiens, UniProt P00751); experiment: Human complement factor B ELISA assay (CVF-Bb, complement C3 protein); assay type: biochemical; set-up: followed by the addition of 0.2 μL of CVF-Bb (0.1 μmol/mL); settings: CVF-Bb incubated with compound 1 hour, then complement C3 protein 37° C. 2 hours, OD 450 nm
Description: The mixture was incubated at room temperature for 1 hour;
Then, 9 μL of the successfully incubated samples were taken and added to the wells of the 96T plate, followed by the addition of 1 μL complement C3 protein, and the reaction was carried out at a constant temperature of 37° C. for 2 hours;
The 9 μL of the aforementioned sample-free liquid was mixed with 1 μL of complement C3 protein as the negative control; • 10 μL of the successfully incubated sample was taken, and the inhibitory concentration was determined by ELISA. The OD value at 450 nm was measured, and a curve was plotted. The obtained data were analyzed using GraphPad Prism 7.0 software, and a Log concentration-inhibition rate curve was generated using a nonlinear regression model to calculate the IC50 value.

Chain of Complement factor B (P00751 260-764 limits assumed): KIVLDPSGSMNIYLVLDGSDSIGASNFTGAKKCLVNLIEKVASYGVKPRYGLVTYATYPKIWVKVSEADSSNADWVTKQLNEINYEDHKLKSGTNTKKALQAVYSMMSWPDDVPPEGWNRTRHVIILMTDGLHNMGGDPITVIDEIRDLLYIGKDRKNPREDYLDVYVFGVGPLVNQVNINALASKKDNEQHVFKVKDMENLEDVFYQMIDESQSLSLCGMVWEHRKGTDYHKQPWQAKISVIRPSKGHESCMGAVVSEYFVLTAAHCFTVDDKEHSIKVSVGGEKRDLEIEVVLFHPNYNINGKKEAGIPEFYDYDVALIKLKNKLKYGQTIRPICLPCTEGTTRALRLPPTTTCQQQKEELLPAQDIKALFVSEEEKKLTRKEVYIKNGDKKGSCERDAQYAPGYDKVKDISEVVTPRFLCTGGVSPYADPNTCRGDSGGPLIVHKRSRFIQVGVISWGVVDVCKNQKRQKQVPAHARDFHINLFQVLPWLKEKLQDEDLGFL
Chain of Complement factor B (Q91132 23-649 partner limits assumed): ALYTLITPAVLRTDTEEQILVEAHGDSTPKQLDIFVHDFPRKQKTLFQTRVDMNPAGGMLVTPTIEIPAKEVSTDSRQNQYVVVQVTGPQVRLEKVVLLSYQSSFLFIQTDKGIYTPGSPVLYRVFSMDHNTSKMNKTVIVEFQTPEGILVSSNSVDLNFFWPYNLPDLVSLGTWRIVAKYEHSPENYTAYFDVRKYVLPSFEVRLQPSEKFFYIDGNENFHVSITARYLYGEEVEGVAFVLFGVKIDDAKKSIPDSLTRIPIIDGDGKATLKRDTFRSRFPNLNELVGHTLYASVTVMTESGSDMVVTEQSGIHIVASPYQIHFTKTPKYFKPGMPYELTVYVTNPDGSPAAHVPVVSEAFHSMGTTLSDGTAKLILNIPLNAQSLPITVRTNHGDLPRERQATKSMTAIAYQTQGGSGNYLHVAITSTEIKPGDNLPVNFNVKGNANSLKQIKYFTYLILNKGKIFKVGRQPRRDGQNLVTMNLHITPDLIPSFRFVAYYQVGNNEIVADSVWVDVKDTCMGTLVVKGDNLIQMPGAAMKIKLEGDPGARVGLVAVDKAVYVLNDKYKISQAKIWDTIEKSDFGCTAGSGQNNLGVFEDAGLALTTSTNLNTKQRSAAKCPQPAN
Chain of Complement factor B (Q91132 733-984 partner limits assumed): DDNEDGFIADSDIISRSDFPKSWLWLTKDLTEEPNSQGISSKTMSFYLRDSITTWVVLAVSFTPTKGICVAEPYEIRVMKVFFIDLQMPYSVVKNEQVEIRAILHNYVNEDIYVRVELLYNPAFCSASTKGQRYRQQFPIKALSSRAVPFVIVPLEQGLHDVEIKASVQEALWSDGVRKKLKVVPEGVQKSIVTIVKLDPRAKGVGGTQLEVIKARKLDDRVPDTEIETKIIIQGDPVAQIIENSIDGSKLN
Chain of Complement factor B (Q91132 1264-1642 partner limits assumed): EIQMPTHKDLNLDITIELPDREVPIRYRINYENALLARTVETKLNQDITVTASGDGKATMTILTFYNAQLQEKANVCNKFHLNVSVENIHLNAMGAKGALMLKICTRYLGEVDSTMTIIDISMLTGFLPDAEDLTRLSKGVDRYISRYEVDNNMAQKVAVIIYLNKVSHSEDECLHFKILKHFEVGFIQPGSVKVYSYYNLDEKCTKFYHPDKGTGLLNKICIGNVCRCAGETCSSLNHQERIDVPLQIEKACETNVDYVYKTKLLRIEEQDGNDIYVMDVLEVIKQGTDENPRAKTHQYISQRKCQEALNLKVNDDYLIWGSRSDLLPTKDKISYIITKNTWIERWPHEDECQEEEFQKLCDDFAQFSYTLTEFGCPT

| SMILES | IC50 (PNH-like erythrocytes) [nM] | clearance rate during in vivo metabolism, compared with LNP023 [1] | half-life during in vivo metabolism, compared with LNP023 [1] | IC50 (Complement factor B) [nM] |
| --- | --- | --- | --- | --- |
| CCCC1CCN(C(=O)c2c(OC)cc(C)c3[nH]ccc23)[C@H](c2ccc(C(=O)O)cc2)C1 (mixture of isomers) [Final product of Example 158, 4-((2S)-1-(5-Methoxy-7-methyl-1H-indole-4-carbonyl)-4-propylpiperidin-2-yl)benzoic acid] | 50 to 250 | comparable or superior | comparable or superior | 5 to 30 |
| CCO[C@H]1CCN(Nc2c(OC)cc(C)c3[nH]ccc23)[C@H](c2ccc(C(=O)O)cc2)C1 [Compound 11 of Example 75, 4-((2S,4S)-4-Ethoxy-1-((5-methoxy-7-methyl-1H-indol-4-yl)amino)piperidin-2-yl)benzoic acid] | 100 to 300 | comparable or superior | comparable or superior | 10 to 30 |
| CCCC1CCN(C(=O)c2c(OC)cc(C)c3[nH]ccc23)C(c2ccc(C(=O)O)cc2)C1 (single isomer, unassigned) [Compound 159A] | 50 to 250 | comparable or superior | comparable or superior | 5 to 30 |
